In patent US10189794B2, “Heteroaryl compounds and uses thereof” (Celgene CAR LLC, priority 2013, dated 2019):

Assays:
[1] = tested on: Huh7 cells; assay: Cell proliferation, Huh7 (CellTiter Glo); assay type: cell-based; conditions: Homo sapiens, Huh-7; Huh7; 120 hr; read-out: Cell Proliferation GI50 (nM) HUH
Protocol: The growth inhibition (GI50) values were determined by Graph Pad Prism.

[2] = tested on: MDA-MB-453 cells; assay: Cell proliferation, MDA-MB-453 (CellTiter Glo); assay type: cell-based; conditions: Homo sapiens; MDA-MB-453; 96 hr; read-out: Cell Proliferation GI50 (nM) MDA
Protocol: For both MDA-MB-453 and Huh7 cells the starting density was 5000 cells per well. The cells were allowed to settle down for 4 hr and were then treated with 5, 1.25, 0.31, 0.078, 0.020 or 0.005 μM of test compound for: 96 hr for MDA-MB-453 and 120 hr for Huh7 cells. Cell viability was determined by CellTiter Glo (Promega, Madison, Wis.) and the results were converted to cell numbers using a standard curve. The growth inhibition (GI50) values were determined by Graph Pad Prism.
The results of these experiments show the ability of compounds to inhibit cell growth in FGFR dependant cell lines and are depicted in Table 8, in the columns titled “Cell Proliferation GI50 (nM)”. MDA-MB-453 cell results fall under the heading “MDA” and Huh7 cell results fall under the heading “Huh.”

Row | Compound | GI50 [1] [nM] | GI50 [2] [nM]
1 | C=CC(=O)NC1COCC1Nc1ncc2c(n1)N(CC1CC1)C(=O)N(c1c(Cl)c(OC)cc(OC)c1Cl)C2 (centres unmarked) [I-212] | < 100 | 
2 | C=CC(=O)NC1CCCCC1Nc1ncc2c(n1)N(CC(F)F)C(=O)N(c1c(F)c(OC)cc(OC)c1F)C2 (centres unmarked) [I-115] | > 1000 | 
3 | C=CC(=O)Nc1cc(-c2nnn(C)n2)ccc1Nc1ncc2c(n1)N(C)C(=O)N(c1cc(OC)cc(OC)c1)C2 [I-146] | > 1000 | 
4 | C=CC(=O)NC1CN(c2ccncn2)CC1Nc1ncc2c(n1)N(C)C(=O)N(c1c(Cl)c(OC)cc(OC)c1Cl)C2 (centres unmarked) [I-201] | 501 to 999 | 
5 | C=CC(=O)Nc1ccccc1Nc1ncc2c(n1)N(CC(F)F)C(=O)N(c1c(F)c(OC)cc(OC)c1F)C2 [I-116] | 101 to 500 | < 100
6 | C=CC(=O)Nc1ccc(C(F)(F)F)cc1Nc1ncc2c(n1)N(C)C(=O)N(c1cc(OC)cc(OC)c1)C2 [I-50] | > 1000 | 
7 | C=CC(=O)Nc1ccccc1Nc1ncc2c(n1)N(CC1CC1)C(=O)N(c1cc(OC)cc(OC)c1Cl)C2 [I-100] | 501 to 999 | 101 to 500
8 | C=CC(=O)NC1CN(C2CCN(C)CC2)CC1Nc1ncc2c(n1)N(C)C(=O)N(c1c(Cl)c(OC)cc(OC)c1Cl)C2 (racemic) [I-154] | > 1000 | 
9 | C=CC(=O)N[C@@H]1COC[C@@H]1Nc1ncc2c(n1)N(C)C(=O)N(c1c(Cl)c(OC)cc(OC)c1Cl)C2 [I-185] | > 1000 | 
10 | C=CC(=O)Nc1ccccc1Nc1ncc2c(n1)N(Cc1ccn(C)n1)C(=O)N(c1c(Cl)c(OC)cc(OC)c1Cl)C2 [I-136] |  | < 100
11 | C=CC(=O)Nc1ccccc1Nc1ncc2c(n1)N(Cc1cscn1)C(=O)N(c1c(Cl)c(OC)cc(OC)c1Cl)C2 [I-86] |  | < 100
12 | C=CC(=O)Nc1ccccc1Nc1ncc2c(n1)N(CC#N)C(=O)N(c1cc(OC)cc(OC)c1)C2 [I-48] | > 1000 | 501 to 999
13 | C=CC(=O)Nc1cc(C(F)(F)F)ccc1Nc1ncc2c(n1)N(C)C(=O)N(c1cc(OC)cc(OC)c1)C2 [I-42] | > 1000 | 
14 | C=CC(=O)Nc1ccccc1Nc1ncc2c(n1)N(CC(F)F)C(=O)N(c1cc(OC)cc(OC)c1Cl)C2 [I-104] | 101 to 500 | < 100
15 | C=CC(=O)NC1COCC1Nc1ncc2c(n1)N(C)C(=O)N(c1c(F)c(OC)cc(OC)c1Cl)C2 (centres unmarked) [I-206] | < 100 | 
16 | C=CC(=O)Nc1ccccc1Nc1ncc2c(n1)N(Cc1ccnc(N)c1)C(=O)N(c1cc(OC)cc(OC)c1)C2 [I-87] | 101 to 500 | < 100
17 | C=CC(=O)N[C@H]1COC[C@H]1Nc1ncc2cc(-c3c(Cl)c(OC)cc(OC)c3Cl)c(=O)n(C)c2n1 [I-241] | < 100 | 
18 | C=CC(=O)Nc1ccccc1Nc1ncc2c(n1)N(CC1CC1)C(=O)N(c1cc(OC)cc(OC)c1F)C2 [I-109] |  | < 100
19 | C=CC(=O)NC1COCC1Nc1ncc2c(n1)N(C)C(=O)N(c1c(F)c(OC)cc(OC)c1F)C2 (centres unmarked) [I-198] | 101 to 500 | 
20 | C=CC(=O)NC1COCC1Nc1ncc2cc(-c3c(Cl)c(OC)cc(OC)c3Cl)c(=O)n(C)c2n1 (centres unmarked) [I-211] | < 100 | 
21 | C=CC(=O)Nc1ccccc1Nc1ncc2c(n1)N(CC(O)CO)C(=O)N(c1cc(OC)cc(OC)c1)C2 (centres unmarked) [I-33] | > 1000 | 
22 | C=CC(=O)N[C@H]1CCCC[C@H]1Nc1ncc2c(n1)N(C)C(=O)N(c1c(F)c(OC)cc(OC)c1Br)C2 [I-228] | 101 to 500 | 

Row | Compound | GI50 [1] [nM] | GI50 [2] [nM]
23 | C=CC(=O)Nc1ccccc1Nc1ncc2c(n1)N(Cc1ccnc(N)c1)C(=O)N(c1c(Cl)c(OC)cc(OC)c1Cl)C2 [I-135] |  | < 100
24 | C=CC(=O)Nc1cc(C(F)(F)F)ccc1Nc1ncc2c(n1)N(Cc1ccccc1)C(=O)N(c1c(Cl)c(OC)cc(OC)c1Cl)C2 [I-6] | 101 to 500 | < 100
25 | C=CC(=O)NC1CCCCC1Nc1ncc2c(n1)N(C)C(=O)N(c1c(Cl)c(OC)cc(OC)c1Cl)C2 (racemic) [I-19] | 501 to 999 | 101 to 500
26 | C=CC(=O)NC1CCCCC1Nc1ncc2c(n1)N(CCF)C(=O)N(c1c(Cl)c(OC)cc(OC)c1Cl)C2 (racemic) [I-106] | > 1000 | 
27 | C=CC(=O)Nc1ccccc1Nc1ncc2c(n1)N(C1CCCN(C(=O)OC(C)(C)C)C1)C(=O)N(c1cc(OC)cc(OC)c1)C2 (centres unmarked) [I-36] | > 1000 | 
28 | C=CC(=O)N[C@H]1CCCC[C@H]1Nc1ncc2cc(-c3c(Cl)c(OC)cc(OC)c3Cl)c(=O)n(C)c2n1 [I-223] | 101 to 500 | 
29 | C=CC(=O)Nc1ccccc1Nc1ncc2c(n1)N(C1CCCNC1)C(=O)N(c1cc(OC)cc(OC)c1)C2 (centres unmarked) [I-43] | 101 to 500 | 
30 | C=CC(=O)Nc1ccccc1Nc1ncc2c(n1)N(CCF)C(=O)N(c1cc(OC)cc(OC)c1)C2 [I-102] | > 1000 | 
31 | C=CC(=O)Nc1ccccc1Nc1ncc2c(n1)N(Cc1cccc(C#N)c1)C(=O)N(c1cc(OC)cc(OC)c1)C2 [I-90] |  | 101 to 500
32 | C=CC(=O)Nc1ccccc1Nc1ncc2c(n1)N(Cc1ccc(Cl)c(OC)c1)C(=O)N(c1c(Cl)c(OC)cc(OC)c1Cl)C2 [I-24] |  | < 100
33 | C=CC(=O)Nc1cc(N2CCN(C(=O)CCCC(=O)NCCCOCCOCCOCCCNC(=O)CCCC[C@@H]3SC[C@@H]4NC(=O)N[C@@H]43)CC2)ccc1Nc1ncc2c(n1)N(C)C(=O)N(c1c(Cl)c(OC)cc(OC)c1Cl)C2 [I-127] | > 1000 | 
34 | C=CC(=O)NC1CN(C(C)=O)CC1Nc1ncc2c(n1)N(C)C(=O)N(c1c(Cl)c(OC)cc(OC)c1Cl)C2 (racemic) [I-139] | 501 to 999 | 
35 | C=CC(=O)Nc1cc(C(=O)NC2CCN(C)CC2)ccc1Nc1ncc2c(n1)N(C)C(=O)N(c1cc(OC)cc(OC)c1)C2 [I-151] | > 1000 | 
36 | COc1cc(OC)c(Cl)c(N2Cc3cnc(Nc4ccccc4)nc3N(C)C2=O)c1Cl [I-238] | < 100 | 
37 | C=CC(=O)Nc1ccccc1Nc1ncc2c(n1)N(C)C(=O)N(c1cc(OC)cc(OC)c1F)C2 [I-108] |  | 101 to 500
38 | C=CC(=O)NC1COCC1Nc1ncc2c(n1)N(Cc1ccn(C)n1)C(=O)N(c1c(Cl)c(OC)cc(OC)c1Cl)C2 (centres unmarked) [I-215] | 101 to 500 | 
39 | C=CC(=O)NC1COCC1Nc1ncc2c(n1)N(Cc1cc[nH]n1)C(=O)N(c1c(Cl)c(OC)cc(OC)c1Cl)C2 (centres unmarked) [I-216] | 101 to 500 | 
40 | C=CC(=O)NC1COCC1Nc1ncc2c(n1)N(CC)C(=O)N(c1c(Cl)c(OC)cc(OC)c1Cl)C2 (centres unmarked) [I-217] | < 100 | 
41 | C=CC(=O)NC1CN(C)CC1Nc1ncc2c(n1)N(C)C(=O)N(c1c(Cl)c(OC)cc(OC)c1Cl)C2 (racemic) [I-138] | > 1000 | 
42 | C=CC(=O)Nc1cc(N2CCCCC2)ccc1Nc1ncc2c(n1)N(C)C(=O)N(c1cc(OC)cc(OC)c1)C2 [I-31] |  | 101 to 500
43 | C=CC(=O)N[C@H]1CCCC[C@H]1Nc1ncc2c(n1)N(Cc1ccccc1)C(=O)N(c1c(Cl)c(OC)cc(OC)c1Cl)C2 [I-82] |  | < 100
44 | C=CS(=O)(=O)Nc1ccccc1Nc1ncc2c(n1)N(C)C(=O)N(c1cc(OC)cc(OC)c1)C2 [I-67] |  | 501 to 999

Row | Compound | GI50 [1] [nM] | GI50 [2] [nM]
45 | C=CC(=O)Nc1cc(-c2nnnn2C)ccc1Nc1ncc2c(n1)N(C)C(=O)N(c1c(Cl)c(OC)cc(OC)c1Cl)C2 [I-153] | 101 to 500 | 
46 | C=CC(=O)Nc1ccccc1Nc1ncc2c(n1)N(C1CC1)C(=O)N(c1c(Cl)c(OC)cc(OC)c1Cl)C2 [I-23] |  | < 100
47 | C=CC(=O)N[C@H]1CCCC[C@H]1Nc1ncc2c(n1)N(Cc1nccs1)C(=O)N(c1c(Cl)c(OC)cc(OC)c1Cl)C2 [I-92] |  | 101 to 500
48 | C=CC(=O)Nc1ccccc1Nc1ncc2c(n1)N(C1CC1)C(=O)N(c1cc(OC)cc(OC)c1)C2 [I-34] |  | 501 to 999
49 | C=CC(=O)Nc1ccc(-c2nccs2)cc1Nc1ncc2c(n1)N(C)C(=O)N(c1cc(OC)cc(OC)c1)C2 [I-78] |  | 101 to 500
50 | C=CC(=O)Nc1nn(C)cc1Nc1ncc2c(n1)N(C)C(=O)N(c1c(Cl)c(OC)cc(OC)c1Cl)C2 [I-117] | 101 to 500 | 
51 | C=CC(=O)N[C@H]1COC[C@H]1Nc1ncc2c(n1)N(C)C(=O)N(c1c(Cl)c(OC)cc(OC)c1Cl)C2 [I-186] | < 100 | 
52 | C=CC(=O)Nc1ccccc1Nc1ncc2c(n1)N(C)C(=O)N(c1cc(OC)cc(OC)c1Cl)C2 [I-75] |  | 101 to 500
53 | C=CC(=O)Nc1cc(C)ccc1Nc1ncc2c(n1)N(C)C(=O)N(c1cc(OC)cc(OC)c1)C2 [I-41] | > 1000 | 
54 | C=CC(=O)Nc1cc(OC)ccc1Nc1ncc2cc(-c3c(Cl)c(OC)cc(OC)c3Cl)c(=O)n(C)c2n1 [I-242] | < 100 | 
55 | C=CC(=O)NC1CCCCC1Nc1ncc2c(n1)N(Cc1ccn(C)c(=O)c1)C(=O)N(c1c(Cl)c(OC)cc(OC)c1Cl)C2 (centres unmarked) [I-132] | > 1000 | 
56 | C=CC(=O)Nc1ccccc1Nc1ncc2c(n1)N(Cc1nccs1)C(=O)N(c1c(Cl)c(OC)cc(OC)c1Cl)C2 [I-91] |  | < 100
57 | C=CC(=O)N[C@H]1COCC[C@H]1Nc1ncc2c(n1)N(C)C(=O)N(c1c(Cl)c(OC)cc(OC)c1Cl)C2 [I-140] | 501 to 999 | 
58 | C=CC(=O)NC1COCC1Nc1ncc2c(n1)N(Cc1cnn(C)c1)C(=O)N(c1c(Cl)c(OC)cc(OC)c1Cl)C2 (centres unmarked) [I-213] | < 100 | 
59 | C=CC(=O)N[C@@H]1COC[C@@H]1Nc1ncc2cc(-c3c(Cl)c(OC)cc(OC)c3Cl)c(=O)n(C)c2n1 [I-240] | > 1000 | 
60 | C=CCN1C(=O)N(c2cc(OC)cc(OC)c2)Cc2cnc(Nc3ccccc3NC(=O)C=C)nc21 [I-32] |  | 501 to 999
61 | C=CC(=O)Nc1cc(-c2cnn(C)c2)ccc1Nc1ncc2c(n1)N(C)C(=O)N(c1cc(OC)cc(OC)c1)C2 [I-77] |  | 101 to 500
62 | C=CC(=O)Nc1ccccc1Nc1ncc2c(n1)NC(=O)N(c1cc(OC)cc(OC)c1)C2 [I-125] | > 1000 | 
63 | C=CC(=O)NC1COCC1Nc1ncc2c(n1)N(Cc1cscn1)C(=O)N(c1c(Cl)c(OC)cc(OC)c1Cl)C2 (centres unmarked) [I-210] | 101 to 500 | 
64 | C=CC(=O)NC1CCCCC1Nc1ncc2c(n1)N(Cc1csc(C)n1)C(=O)N(c1c(Cl)c(OC)cc(OC)c1Cl)C2 (centres unmarked) [I-137] | 501 to 999 | 
